The text below walks through data of patent US20220016215A1, “GIP RECEPTOR AGONIST PEPTIDE COMPOUNDS AND USES THEREOF” (TAKEDA PHAARMACEUTICAL COMPANY LIMITED, priority 2018, published 2022).

Marks after values point to notes of the source that are not given here. Non-standard residues stand in square brackets, D forms with d. Groups on a side chain read outwards from the residue. No end group written: not given here. *: point of attachment. C15 diacid = O=C(O)CCCCCCCCCCCCCC(=O)*; Palmitoyl = CCCCCCCCCCCCCCCC(=O)*; Aib = CC(C)(N)C(=O)O

The subject of assay [1] is morphine (0.6 mg/kg, s.c.)-induced emesis in ferrets. Kind of assay: Morphine-induced acute emetic model in male ferrets. Format: in vivo, ferret. To be noted: for Emesis: Duration / Emesis: Frequency / Emesis: No. of animals (responder/used) / Fidget: Duration / Fidget: Frequency / Fidget: No. of animals (responder/used) / Licking: Duration / Licking: Frequency / Licking: No. of animals (responder/used) / Retching: Duration / Retching: Frequency / Retching: No. of animals (responder/used) / Vomiting: Duration / Vomiting: Frequency / Vomiting: No. of animals (responder/used) / Emesis: Latency / Fidget: Latency / Licking: Latency / Retching: Latency / Vomiting: Latency: morphine 0.6 mg/kg s.c. 0.5 h after drug, 106-[…] s.c. (30 nmol/kg); for Emesis: Latency / Fidget: Latency / Licking: Latency / Retching: Latency / Vomiting: Latency: non-responders counted as 30 min; for Attenuation of morphine-induced emesis (in words) / Comment: Anti-Emetic Activity (inhibition) on morphine-induced emesis: male ferrets; for Attenuation of morphine-induced emesis (in words): 30 nmol/kg s.c. 30 minutes before morphine 0.6 mg/kg s.c.; for Comment: Anti-Emetic Activity (inhibition) on morphine-induced emesis: summary of the morphine experiments. As to the method:
Example 6—In-Vivo Effect of GIP Receptor Agonist Peptides on Emesis in Morphine Induced Emesis Model in Live Male Ferrets
Effect of subcutaneously administered GIP receptor agonist peptide in morphine-induced acute emetic model.
To evaluate the antiemetic effect, the GIP receptor agonist peptides other than natural human GIP were subcutaneously administered into male ferrets 30 minutes before morphine administration. […]. Up to 60 minutes after morphine administration, the condition of the ferrets was monitored to record the frequencies and time points of abdominal contraction motions, vomiting behaviors, licking with the tongue, and fidgety behavior occurring
Effects of Subcutaneously Administered GIP Receptor Agonist Peptides in Morphine-Induced Acute Emetic Model
30 nmol/kg of Compounds 3 and 5 were dissolved with a vehicle (0.09 w/v % tween 80/10% DMSO/saline), respectively, to prepare test solutions. […] of the test solutions and the vehicle were subcutaneously administered to ferrets (4 in each group), respectively. At the time of each of 4 hours, after administration, 0.6 mg/kg of morphine was subcutaneously administered. […] See results in Tables 6, 7 and 8.
(§1) 10 nmol/kg of each compound dissolved with a vehicle (0.09 w/v % tween 80/10% DMSO/saline) respectively, to prepare test solutions. […] of the test solutions and the vehicle were subcutaneously administered to ferrets (4 in each group), respectively. At the time of each of 4 hours, or 120 hours after administration, 0.6 mg/kg of morphine was subcutaneously administered. Up to 360 minutes after morphine administration, the condition of the ferrets was monitored to record the frequencies and time points of abdominal contraction motions, vomiting behaviors, licking with the tongue, and fidgety behavior occurring.
as §1, with “30 nmol/kg” for “10 nmol/kg”, “80/10% DMSO/saline),respectively,” for “80/10% DMSO/saline) respectively,”

For a further assay, the target named is T1, human GIPR (human, UniProt P48546 22-466).
T1 sequence (looked up): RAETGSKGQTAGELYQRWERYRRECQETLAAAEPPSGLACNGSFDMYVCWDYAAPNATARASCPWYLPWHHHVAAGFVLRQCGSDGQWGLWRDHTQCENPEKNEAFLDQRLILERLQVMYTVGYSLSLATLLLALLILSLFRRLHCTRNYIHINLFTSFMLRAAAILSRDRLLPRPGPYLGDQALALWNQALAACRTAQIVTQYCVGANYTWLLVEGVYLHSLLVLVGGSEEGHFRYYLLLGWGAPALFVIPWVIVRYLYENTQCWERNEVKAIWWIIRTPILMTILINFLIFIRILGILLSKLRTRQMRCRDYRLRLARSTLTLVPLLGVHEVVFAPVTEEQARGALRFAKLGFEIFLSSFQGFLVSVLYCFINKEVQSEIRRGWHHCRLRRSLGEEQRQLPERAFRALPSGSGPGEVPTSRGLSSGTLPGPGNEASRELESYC
Kind of assay: cell-based or functional assay.

The target in a further assay is human GLP-1R (human, UniProt P43220 24-463). As to the kind of experiment: cell-based or functional assay.

In the case of `CC[C@H](C)[C@H](NC(=O)[C@H](CO)NC(=O)[C@H](Cc1ccc(O)cc1)NC(=O)[C@H](CC(=O)O)NC(=O)[C@H](CO)NC(=O)[C@@H](NC(=O)[C@H](Cc1ccccc1)NC(=O)[C@@H](NC(=O)CNC(=O)[C@H](CCC(=O)O)NC(=O)[C@@H](C)NC(=O)[C@@H](N)Cc1ccc(O)cc1)[C@@H](C)O)[C@@H](C)CC)C(=O)N[C@@H](C)C(=O)N[C@@H](CCSC)C(=O)N[C@@H](CC(=O)O)C(=O)N[C@@H](CCCCN)C(=O)N[C@H](C(=O)N[C@@H](Cc1c[nH]cn1)C(=O)N[C@@H](CCC(N)=O)C(=O)N[C@@H](CCC(N)=O)C(=O)N[C@@H](CC(=O)O)C(=O)N[C@@H](Cc1ccccc1)C(=O)N[C@H](C(=O)N[C@@H](CC(N)=O)C(=O)N[C@@H](Cc1c[nH]c2ccccc12)C(=O)N[C@@H](CC(C)C)C(=O)N[C@@H](CC(C)C)C(=O)N[C@@H](C)C(=O)N[C@@H](CCC(N)=O)C(=O)N[C@@H](CCCCN)C(=O)O)C(C)C)[C@@H](C)CC` [Compound 4], in assay [1] (ferrets), the “Emesis: Duration” value is reported as 0.0 ± 0.0 min, the “Emesis: Frequency” value is recorded as 0.0 ± 0.0, the “Emesis: No. of animals (responder/used)” value is on record as 0/4 # and the “Fidget: Duration” value came to 0.0 ± 0.0 min. For the same molecule, in assay [1] (ferrets), the “Fidget: Frequency” value worked out at 0.0 ± 0.0, the “Fidget: No. of animals (responder/used)” value is on record as 0/4, the “Licking: Duration” value stood at 0.0 ± 0.0 min and the “Licking: Frequency” value is 0.0 ± 0.0. Further, in assay [1] (ferrets), the “Licking: No. of animals (responder/used)” value is 0/4 #, the “Retching: Duration” value was found to be 0.0 ± 0.0 min, the “Retching: Frequency” value came to 0.0 ± 0.0 and the “Retching: No. of animals (responder/used)” value is reported as 0/4 #. Also, in assay [1] (ferrets), the “Vomiting: Duration” value came to 0.0 ± 0.0 min, the “Vomiting: Frequency” value worked out at 0.0 ± 0.0, the “Vomiting: No. of animals (responder/used)” value was 0/4 and the “Emesis: Latency” value is recorded as 30.0 ± 0.0 min. In assay [1] (ferrets), the “Fidget: Latency” value is 30.0 ± 0.0 min, the “Licking: Latency” value worked out at 30.0 ± 0.0 min, the “Retching: Latency” value was found to be 30.0 ± 0.0 min and the “Vomiting: Latency” value was 30.0 ± 0.0 min. In assay [1], the “Attenuation of morphine-induced emesis (in words)” value is listed as “completely attenuated” and the “Comment: Anti-Emetic Activity (inhibition) on morphine-induced emesis” value is 100% inhibition.

Regarding “Ac-(D-Tyr)AEGTFISDYSIAMDAIHQQDFVNWLLAQLys-(palmitoyl acyl fatty acid)-NH2 (Ac-[dY]AEGTFISDYSIAMDAIHQQDFVNWLLAQK(Palmitoyl)-NH2; SMILES CCCCCCCCCCCCCCCC(=O)NCCCC[C@H](NC(=O)[C@H](CCC(N)=O)NC(=O)[C@H](C)NC(=O)[C@H](CC(C)C)NC(=O)[C@H](CC(C)C)NC(=O)[C@H](Cc1c[nH]c2ccccc12)NC(=O)[C@H](CC(N)=O)NC(=O)[C@@H](NC(=O)[C@H](Cc1ccccc1)NC(=O)[C@H](CC(=O)O)NC(=O)[C@H](CCC(N)=O)NC(=O)[C@H](CCC(N)=O)NC(=O)[C@H](Cc1c[nH]cn1)NC(=O)[C@@H](NC(=O)[C@H](C)NC(=O)[C@H](CC(=O)O)NC(=O)[C@H](CCSC)NC(=O)[C@H](C)NC(=O)[C@@H](NC(=O)[C@H](CO)NC(=O)[C@H](Cc1ccc(O)cc1)NC(=O)[C@H](CC(=O)O)NC(=O)[C@H](CO)NC(=O)[C@@H](NC(=O)[C@H](Cc1ccccc1)NC(=O)[C@@H](NC(=O)CNC(=O)[C@H](CCC(=O)O)NC(=O)[C@H](C)NC(=O)[C@@H](Cc1ccc(O)cc1)NC(C)=O)[C@@H](C)O)[C@@H](C)CC)[C@@H](C)CC)[C@@H](C)CC)C(C)C)C(N)=O) [Compound 7]”, the “Ferrets in which the vomiting symptom was observed (in words)” value in assay [1] (ferrets, morphine administered 4 hours after administration) is “all of the 4 ferrets”.

Consider `CC[C@H](C)[C@H](NC(=O)[C@H](CO)NC(=O)[C@H](Cc1ccc(O)cc1)NC(=O)[C@H](CC(=O)O)NC(=O)[C@H](CO)NC(=O)[C@@H](NC(=O)[C@H](Cc1ccccc1)NC(=O)[C@@H](NC(=O)CNC(=O)[C@H](CCC(=O)O)NC(=O)[C@@H](C)NC(=O)[C@@H](N)Cc1ccc(O)cc1)[C@@H](C)O)[C@@H](C)CC)C(=O)N[C@@H](C)C(=O)N[C@@H](CCSC)C(=O)N[C@@H](CC(=O)O)C(=O)N[C@@H](CCCCN)C(=O)N[C@H](C(=O)N[C@@H](Cc1c[nH]cn1)C(=O)N[C@@H](CCC(N)=O)C(=O)N[C@@H](CCC(N)=O)C(=O)N[C@@H](CC(=O)O)C(=O)N[C@@H](Cc1ccccc1)C(=O)N[C@H](C(=O)N[C@@H](CC(N)=O)C(=O)N[C@@H](Cc1c[nH]c2ccccc12)C(=O)N[C@@H](CC(C)C)C(=O)N[C@@H](CC(C)C)C(=O)N[C@@H](C)C(=O)N[C@@H](CCC(N)=O)C(=O)N[C@@H](CCCCN)C(=O)N1CCC[C@H]1C(=O)N[C@@H](CO)C(=O)N[C@@H](CO)C(=O)NCC(=O)N[C@@H](C)C(=O)N1CCC[C@H]1C(=O)N1CCC[C@H]1C(=O)N1CCC[C@H]1C(=O)N[C@@H](CO)C(N)=O)C(C)C)[C@@H](C)CC` [Compound 11], for which, in assay [1] (ferrets), the “Emesis: Duration” value came to 0.0 ± 0.0 min, the “Emesis: Frequency” value is given as 0.0 ± 0.0, the “Emesis: No. of animals (responder/used)” value is on record as 0/4 # and the “Fidget: Duration” value came to 0.0 ± 0.0 min. Besides, in assay [1] (ferrets), the “Fidget: Frequency” value is on record as 0.0 ± 0.0, the “Fidget: No. of animals (responder/used)” value is 0/4, the “Licking: Duration” value was 0.0 ± 0.0 min and the “Licking: Frequency” value is listed as 0.0 ± 0.0. In assay [1] (ferrets), the “Licking: No. of animals (responder/used)” value was 0/4 #, the “Retching: Duration” value worked out at 0.0 ± 0.0 min, the “Retching: Frequency” value worked out at 0.0 ± 0.0 and the “Retching: No. of animals (responder/used)” value is on record as 0/4 #. In assay [1] (ferrets), the “Vomiting: Duration” value was found to be 0.0 ± 0.0 min, the “Vomiting: Frequency” value is 0.0 ± 0.0, the “Vomiting: No. of animals (responder/used)” value is reported as 0/4 and the “Emesis: Latency” value was 30.0 ± 0.0 min. Further, in assay [1] (ferrets), the “Fidget: Latency” value was 30.0 ± 0.0 min, the “Licking: Latency” value was 30.0 ± 0.0 min, the “Retching: Latency” value is on record as 30.0 ± 0.0 min and the “Vomiting: Latency” value is listed as 30.0 ± 0.0 min. Also, in assay [1], the “Attenuation of morphine-induced emesis (in words)” value is “completely attenuated” and the “Comment: Anti-Emetic Activity (inhibition) on morphine-induced emesis” value came to 100% inhibition.

B1: Compound No. 31 (peptide)
peptide: Y[Aib]EGTFISDYSIALDKIHQQDFVNWLLAQK([ethylene glycol-ethylene glycol-C15 diacid])G-OH
As for B1, in the assay with human GIPR, the “GIPR EC50 nM (A)” value amounted to 0.002 nM.

B2: Compound No. 19 (peptide)
peptide: YXEGTFISDYSIAMDKIHQQDFVNWLLAQKGKKNDWKHNITQK
modifications: Aib at 2; Lys-(gamma-glutamic acid)3-palmitoyl at 43; C-terminal -OH
Turning to B2, the “GLP1R pEC50” value with human GLP-1R came out at 8.26.

B3: Compound No. 4 (peptide)
peptide: Y[dA]EGTFISDYSIAMDKIHQQDFVNWLLAQK-OH
In the case of B3, in the assay with human GLP-1R, the “GLP1R EC50 nM (B)” value came to 355 nM and the “GLP1R pEC50” value is 6.5.

B4: Compound No. 1 (peptide)
peptide: Ac-YAEGTFISDYSIAMDKIHQQDFVNWLLAQKGKKNDWKHNIIQ-OH
In the case of B4, in the assay with human GLP-1R, the “GLP1R EC50 nM (B)” value was found to be 302 nM and the “GLP1R pEC50” value was 6.5. In the assay with human GIPR, the “GIPR EC50 nM (A)” value was determined as 0.01 nM and the “GIPR pEC50” value amounted to 11.

B5: Compound No. 28 (peptide)
peptide: Y[Aib]EGTFISDYSIALDKIHQQK([ethylene glycol-ethylene glycol-C15 diacid])FVNWLLAQR-NH2
With B5, the “GIPR EC50 nM (A)” value with human GIPR is below 0.001 nM.

B6: Compound No. 2 (peptide)
peptide: Y[dA]EGTFISDYSIAMDKIHQQDFVNWLLAQKGKKNDWK(Palmitoyl)HNIIQ-NH2
B6: in the assay with human GLP-1R, the “GLP1R EC50 nM (B)” value worked out at 5 nM and the “GLP1R pEC50” value amounted to 8.3.

B7: Compound No. 24 (peptide)
peptide: Y[Aib]EGTFISDYSIALDKIHQQK([ethylene glycol-ethylene glycol-C15 diacid])FVNWLLAQRG-OH
As for B7, the “GIPR EC50 nM (A)” value with human GIPR is below 0.001 nM.
